The source of these data is ChEMBL document CHEMBL4033723, “Succinamide derivatives of melampomagnolide B and their anti-cancer activities” (2017).

What all share (type): functional
A short description of assay [1]: Induction of apoptosis in human M9-ENL1 cells assessed as cell death after 24 hrs by Annexin V/PI or 7-AAD staining based flow cytometry. The note with it: M9-ENL1, 24 h, read-out: LC50 (the source's name). (In general: In flow cytometry, cells or beads pass a laser one at a time.)
In another assay the test system is CCRF-CEM. Nature of the assay: Growth inhibition of human CCRF-CEM cells after 48 hrs by sulforhodamine B assay.
A short description of assay [2]: Growth inhibition of human M9-ENL1 cells after 24 hrs by trypan blue assay. The note with it: M9-ENL1, 24 h.
Another assay has as its system COLO 205. Nature of the assay: Growth inhibition of human COLO205 cells after 48 hrs by sulforhodamine B assay. As to conditions: COLO 205, 48 h.
In another assay the test system is NCI-H522. Description: Growth inhibition of human NCI-H522 cells after 48 hrs by sulforhodamine B assay. The note with it: NCI-H522, 48 h.
The next assay deals with SK-OV-3. Nature of the assay: Growth inhibition of human SKOV3 cells after 48 hrs by sulforhodamine B assay. The note with it: SK-OV-3, 48 h. On the technique in general: The SRB assay estimates cell density from bound dye.
A further assay relates to MCF7. Description: Growth inhibition of human MCF7 cells after 48 hrs by sulforhodamine B assay. As to conditions: MCF7, 48 h.

Broadly, the GI50 is the concentration giving 50% growth inhibition.

Where only a bound is given, the exact number is not on record here.

For the molecule `C=C1C(=O)O[C@H]2[C@H]1CC/C(COC(=O)CCC(=O)NCCCCCCCNC(=O)CCC(=O)OC/C1=C/CC[C@@]3(C)O[C@H]3[C@H]3OC(=O)C(=C)[C@@H]3CC1)=C\CC[C@@]1(C)O[C@@H]21`, the CC50 in assay [1] came out at 15 µM.
Consider `C=C1C(=O)O[C@H]2[C@H]1CC/C(COC(=O)CCC(=O)NCCCN1CCOCC1)=C\CC[C@@]1(C)O[C@@H]21`, for which the CC50 in assay [1] is 14 µM.
`C=C1C(=O)O[C@H]2[C@H]1CC/C(COC(=O)CCC(=O)Nc1cccc(N)n1)=C\CC[C@@]1(C)O[C@@H]21`: in assay [1], the CC50 was 12 µM.
As for `C=C1C(=O)O[C@H]2[C@H]1CC/C(COC(=O)CCC(=O)NCc1ccc(Cl)nc1)=C\CC[C@@]1(C)O[C@@H]21`, the GI50 in the assay with CCRF-CEM came to 2.2 µM; in assay [2] it was 6.5 µM; in the assay on COLO 205, 3.3 µM; in the assay on NCI-H522 it was 1.6 µM; in the assay on SK-OV-3 it was 28 µM; in the assay with MCF7, 3.2 µM. Further, the CC50 in assay [1] is 14 µM.
Turning to `C=C1C(=O)O[C@H]2[C@H]1CC/C(COC(=O)CCC(=O)NCCN1CCOCC1)=C\CC[C@@]1(C)O[C@@H]21`, in assay [1], the CC50 stood at 20 µM.
With `C=C1C(=O)O[C@H]2[C@H]1CC/C(COC(=O)CCC(=O)NCCCCNC(=O)CCC(=O)OC/C1=C/CC[C@@]3(C)O[C@H]3[C@H]3OC(=O)C(=C)[C@@H]3CC1)=C\CC[C@@]1(C)O[C@@H]21`, in assay [1], the CC50 was found to be 19 µM.
On the same count and under the same terms, the value for `C=C1C(=O)O[C@H]2[C@H]1CC/C(COC(=O)CCC(=O)NCCCn1ccnc1)=C\CC[C@@]1(C)O[C@@H]21` was over 20 µM.
For `C=C1C(=O)O[C@H]2[C@H]1CC/C(COC(=O)CCC(=O)NCCCCCCNC(=O)CCC(=O)OC/C1=C/CC[C@@]3(C)O[C@H]3[C@H]3OC(=O)C(=C)[C@@H]3CC1)=C\CC[C@@]1(C)O[C@@H]21`, in assay [1], the CC50 was 21 µM.
Consider `C=C1C(=O)O[C@H]2[C@H]1CC/C(COC(=O)CCC(=O)Nc1nc(N)n[nH]1)=C\CC[C@@]1(C)O[C@@H]21`, for which the CC50 in assay [1] was 60 µM.
As for `C=C1C(=O)O[C@H]2[C@H]1CC/C(COC(=O)CCC(=O)NCc1ccccn1)=C\CC[C@@]1(C)O[C@@H]21`, the CC50 in assay [1] was 14 µM.
With `C=C1C(=O)O[C@H]2[C@H]1CC/C(COC(=O)CCC(=O)NCCCCCCCCCCNC(=O)CCC(=O)OC/C1=C/CC[C@@]3(C)O[C@H]3[C@H]3OC(=O)C(=C)[C@@H]3CC1)=C\CC[C@@]1(C)O[C@@H]21`, the CC50 in assay [1] amounted to 12 µM.
For `C=C1C(=O)O[C@H]2[C@H]1CC/C(COC(=O)CCC(=O)Nc1n[nH]c(SC)n1)=C\CC[C@@]1(C)O[C@@H]21`, the CC50 in assay [1] amounted to 13 µM.
Still for that read-out and setting: the value for `C=C1C(=O)O[C@H]2[C@H]1CC/C(COC(=O)CCC(=O)NCCCNC(=O)CCC(=O)OC/C1=C/CC[C@@]3(C)O[C@H]3[C@H]3OC(=O)C(=C)[C@@H]3CC1)=C\CC[C@@]1(C)O[C@@H]21` was 10 µM; that for `C=C1C(=O)O[C@H]2[C@H]1CC/C(COC(=O)CCC(=O)NCCc1ccccn1)=C\CC[C@@]1(C)O[C@@H]21` was 13.5 µM; that for `C=C1C(=O)O[C@H]2[C@H]1CC/C(COC(=O)CCC(=O)N1CCC(F)(F)CC1)=C\CC[C@@]1(C)O[C@@H]21` was 5.2 µM.
As to `C=C1C(=O)O[C@H]2[C@H]1CC/C(COC(=O)CCC(=O)NCCCCCNC(=O)CCC(=O)OC/C1=C/CC[C@@]3(C)O[C@H]3[C@H]3OC(=O)C(=C)[C@@H]3CC1)=C\CC[C@@]1(C)O[C@@H]21`, in assay [1], the CC50 is 19 µM.
Regarding `C=C1C(=O)O[C@H]2[C@H]1CC/C(COC(=O)CCC(=O)N1CCN(C)CC1)=C\CC[C@@]1(C)O[C@@H]21`, the CC50 in assay [1] came to 8.1 µM.
Take `C=C1C(=O)O[C@@H]2C3O[C@]3(C)CC/C=C(\C)CC[C@@H]12` (some centres undefined): the CC50 in assay [1] stood at 7.5 µM.
